This is an account of results in patent US9605004B2, “Chemical compounds” (SYNGENTA LIMITED, priority 2013, dated 2017).

For assay [1], the system named is a variety of test species. Put plainly: Pre-emergence herbicidal activity (Example 8a, Table 2). The assay is classed as in vivo. Details: key: 0 = no damage to plant, 5 = total damage to plant. To be noted: application pre-emergence, rate 1000 g/ha, evaluated after 13 days. An outline of the steps: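 Visual 0–5 injury score (5 = total damage) taken 13 days after spraying. Treatment applied one day after sowing, before emergence; glasshouse at 24/16 °C day/night, 14 h photoperiod, 65% humidity.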

Assay [2] concerns a variety of test species. Put plainly: Post-emergence herbicidal activity (Example 8b, Table 3). The assay is classed as in vivo. To be noted: application post-emergence, rate 1000 g/ha, evaluated after 13 days, scale 0-5; for Herbicidal damage score, ABUTH: Abutilon theophrasti; for Herbicidal damage score, ALOMY: Alopecurus myosuroides; for Herbicidal damage score, AMARE: Amaranthus retroflexus; for Herbicidal damage score, ECHCG: Echinochloa crus-galli; for Herbicidal damage score, SETFA: Setaria faberi; for Herbicidal damage score, ZEAMX: Zea mays. An outline of the steps:
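Seeds were sown in standard soil and cultivated for 8 days under controlled glasshouse conditions. Seedlings were then sprayed with an aqueous solution of the formulated compound containing 0.5% Tween 20. Injury was rated after a further 13 days, where 5 indicated total damage.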

On to `CC1=C(Cl)C(=O)N(c2cc(Cl)n(C)n2)C1O` (stereo not shown) [Compound B9], for which, in assay [1], the “Pre-emergence herbicidal activity, damage score ABUTH” value is reported as 4; the “Pre-emergence herbicidal activity, damage score ALOMY” value was found to be 3; the “Pre-emergence herbicidal activity, damage score AMARE” value amounted to 5; the “Pre-emergence herbicidal activity, damage score ECHCG” value is reported as 4. Also, in assay [1], the “Pre-emergence herbicidal activity, damage score SETFA” value stood at 5 and the “Pre-emergence herbicidal activity, damage score ZEAMX” value turned out to be 2. Besides, in assay [2], the “Herbicidal damage score, ABUTH” value is on record as 5; the “Herbicidal damage score, ALOMY” value is on record as 5; the “Herbicidal damage score, AMARE” value stood at 5; the “Herbicidal damage score, ECHCG” value was 5. Further, in assay [2], the “Herbicidal damage score, SETFA” value is 5 and the “Herbicidal damage score, ZEAMX” value is on record as 5.

Consider `CC(C)=CCc1cc(N2C(=O)C(Cl)=C(C)C2O)nn1C` (stereo not shown) [Compound B10, 4-chloro-2-hydroxy-3-methyl-1-[1-methyl-5-(3-methylbut-2-enyl)pyrazol-3-yl]-2H-pyrrol-5-one], for which, in assay [1], the “Pre-emergence herbicidal activity, damage score ABUTH” value worked out at 0; the “Pre-emergence herbicidal activity, damage score ALOMY” value turned out to be 0; the “Pre-emergence herbicidal activity, damage score ECHCG” value was found to be 0; the “Pre-emergence herbicidal activity, damage score SETFA” value came to 0. Further, the “Pre-emergence herbicidal activity, damage score ZEAMX” value in assay [1] is on record as 0. In addition, in assay [2], the “Herbicidal damage score, ABUTH” value was 3; the “Herbicidal damage score, ALOMY” value came out at 0; the “Herbicidal damage score, AMARE” value was determined as 0; the “Herbicidal damage score, ECHCG” value came to 2. Further, in assay [2], the “Herbicidal damage score, SETFA” value is given as 5 and the “Herbicidal damage score, ZEAMX” value stood at 2.

In the case of `CC1=C(Cl)C(=O)N(c2cc(/C=C/C(C)(C)C)n(C)n2)C1O` (stereo not shown) [Compound B11], in assay [1], the “Pre-emergence herbicidal activity, damage score ABUTH” value was 2; the “Pre-emergence herbicidal activity, damage score ALOMY” value is 2; the “Pre-emergence herbicidal activity, damage score AMARE” value was 4; the “Pre-emergence herbicidal activity, damage score ECHCG” value was determined as 4. In addition, in assay [1], the “Pre-emergence herbicidal activity, damage score SETFA” value was determined as 3 and the “Pre-emergence herbicidal activity, damage score ZEAMX” value turned out to be 2. In assay [2], the “Herbicidal damage score, ABUTH” value is 5; the “Herbicidal damage score, ALOMY” value is given as 3; the “Herbicidal damage score, AMARE” value came out at 5; the “Herbicidal damage score, ECHCG” value was 5. In assay [2], the “Herbicidal damage score, SETFA” value is given as 5 and the “Herbicidal damage score, ZEAMX” value stood at 1.

For the compound `CC1=C(Cl)C(=O)N(c2cc(C3=CCC(C)(C)CC3)n(C)n2)C1O` (stereo not shown) [Compound B12], in assay [1], the “Pre-emergence herbicidal activity, damage score ABUTH” value is 4; the “Pre-emergence herbicidal activity, damage score ALOMY” value stood at 0; the “Pre-emergence herbicidal activity, damage score AMARE” value came out at 1; the “Pre-emergence herbicidal activity, damage score ECHCG” value was 0. Besides, in assay [1], the “Pre-emergence herbicidal activity, damage score SETFA” value worked out at 2 and the “Pre-emergence herbicidal activity, damage score ZEAMX” value is on record as 1. Further, in assay [2], the “Herbicidal damage score, ABUTH” value is 1; the “Herbicidal damage score, ALOMY” value is reported as 1; the “Herbicidal damage score, AMARE” value is recorded as 2; the “Herbicidal damage score, ECHCG” value was determined as 1. In assay [2], the “Herbicidal damage score, SETFA” value worked out at 1 and the “Herbicidal damage score, ZEAMX” value came to 1.

Consider `CC1=C(Cl)C(=O)N(c2cc(C(F)(F)C(F)(F)F)n(C)n2)C1O` (stereo not shown) [Compound B13], for which, in assay [1], the “Pre-emergence herbicidal activity, damage score ABUTH” value is 5; the “Pre-emergence herbicidal activity, damage score ALOMY” value is 4; the “Pre-emergence herbicidal activity, damage score AMARE” value amounted to 5; the “Pre-emergence herbicidal activity, damage score ECHCG” value is on record as 5. Also, in assay [1], the “Pre-emergence herbicidal activity, damage score SETFA” value amounted to 5 and the “Pre-emergence herbicidal activity, damage score ZEAMX” value was 2. Also, in assay [2], the “Herbicidal damage score, ABUTH” value is 5; the “Herbicidal damage score, ALOMY” value came out at 5; the “Herbicidal damage score, AMARE” value was 5; the “Herbicidal damage score, ECHCG” value worked out at 5. In addition, in assay [2], the “Herbicidal damage score, SETFA” value is 5 and the “Herbicidal damage score, ZEAMX” value amounted to 3.

On to `CC1=C(Cl)C(=O)N(c2cc(C(C)C)n(C)n2)C1O` (stereo not shown) [Compound B14], for which, in assay [1], the “Pre-emergence herbicidal activity, damage score ABUTH” value is on record as 5; the “Pre-emergence herbicidal activity, damage score ALOMY” value was 3; the “Pre-emergence herbicidal activity, damage score AMARE” value came out at 5; the “Pre-emergence herbicidal activity, damage score ECHCG” value was 5. Moreover, in assay [1], the “Pre-emergence herbicidal activity, damage score SETFA” value came out at 4 and the “Pre-emergence herbicidal activity, damage score ZEAMX” value came to 2. In assay [2], the “Herbicidal damage score, ABUTH” value is given as 5; the “Herbicidal damage score, ALOMY” value came to 4; the “Herbicidal damage score, AMARE” value is given as 5; the “Herbicidal damage score, ECHCG” value was 5. In assay [2], the “Herbicidal damage score, SETFA” value is 4 and the “Herbicidal damage score, ZEAMX” value was found to be 5.

In the case of `CC1=C(Cl)C(=O)N(c2ccn(C)n2)C1O` (stereo not shown) [Compound B15], in assay [1], the “Pre-emergence herbicidal activity, damage score ABUTH” value is on record as 4; the “Pre-emergence herbicidal activity, damage score ALOMY” value was 3; the “Pre-emergence herbicidal activity, damage score AMARE” value was 5; the “Pre-emergence herbicidal activity, damage score ECHCG” value was 4. For the same compound, in assay [1], the “Pre-emergence herbicidal activity, damage score SETFA” value was found to be 4 and the “Pre-emergence herbicidal activity, damage score ZEAMX” value is 2. In addition, in assay [2], the “Herbicidal damage score, ABUTH” value turned out to be 4; the “Herbicidal damage score, ALOMY” value came to 3; the “Herbicidal damage score, AMARE” value is reported as 4; the “Herbicidal damage score, ECHCG” value stood at 4. In addition, in assay [2], the “Herbicidal damage score, SETFA” value was 2 and the “Herbicidal damage score, ZEAMX” value is listed as 1.

In the case of `CC1=C(Cl)C(=O)N(c2cc(I)n(C)n2)C1O` (stereo not shown) [Compound B16], in assay [1], the “Pre-emergence herbicidal activity, damage score ABUTH” value was determined as 4; the “Pre-emergence herbicidal activity, damage score ALOMY” value came to 4; the “Pre-emergence herbicidal activity, damage score ECHCG” value was 4; the “Pre-emergence herbicidal activity, damage score ZEAMX” value stood at 3. The “Herbicidal damage score, ZEAMX” value in assay [2] amounted to 4.

For the compound `CC1=C(Cl)C(=O)N(c2cc(/C=C/C(C)(C)C)n(C)n2)C1O` (stereo not shown) [Compound B17], in assay [1], the “Pre-emergence herbicidal activity, damage score ABUTH” value is reported as 2; the “Pre-emergence herbicidal activity, damage score ALOMY” value was determined as 2; the “Pre-emergence herbicidal activity, damage score AMARE” value stood at 4; the “Pre-emergence herbicidal activity, damage score ECHCG” value came out at 4. Moreover, in assay [1], the “Pre-emergence herbicidal activity, damage score SETFA” value was 3 and the “Pre-emergence herbicidal activity, damage score ZEAMX” value is listed as 2. Moreover, in assay [2], the “Herbicidal damage score, ABUTH” value is listed as 5; the “Herbicidal damage score, ALOMY” value was determined as 3; the “Herbicidal damage score, AMARE” value is 5; the “Herbicidal damage score, ECHCG” value worked out at 5. In assay [2], the “Herbicidal damage score, SETFA” value came to 5 and the “Herbicidal damage score, ZEAMX” value was determined as 1.

In the case of `CC1=C(Cl)C(=O)N(c2cc(Cl)n(C)n2)C1O` (stereo not shown) [Compound B18], in assay [1], the “Pre-emergence herbicidal activity, damage score ABUTH” value stood at 4; the “Pre-emergence herbicidal activity, damage score ALOMY” value is 3; the “Pre-emergence herbicidal activity, damage score AMARE” value worked out at 5; the “Pre-emergence herbicidal activity, damage score ECHCG” value worked out at 4. In assay [1], the “Pre-emergence herbicidal activity, damage score SETFA” value is listed as 5 and the “Pre-emergence herbicidal activity, damage score ZEAMX” value is given as 2. Further, in assay [2], the “Herbicidal damage score, ABUTH” value is listed as 5; the “Herbicidal damage score, ALOMY” value came to 5; the “Herbicidal damage score, AMARE” value turned out to be 5; the “Herbicidal damage score, ECHCG” value was 5. Also, in assay [2], the “Herbicidal damage score, SETFA” value worked out at 5 and the “Herbicidal damage score, ZEAMX” value was determined as 5.

Consider `CC(C)=Cc1cc(N2C(=O)C(Cl)=C(C)C2O)nn1C` (stereo not shown) [Compound B20], for which, in assay [1], the “Pre-emergence herbicidal activity, damage score ABUTH” value stood at 4; the “Pre-emergence herbicidal activity, damage score ALOMY” value worked out at 2; the “Pre-emergence herbicidal activity, damage score AMARE” value came to 4; the “Pre-emergence herbicidal activity, damage score ECHCG” value worked out at 4. Also, in assay [1], the “Pre-emergence herbicidal activity, damage score SETFA” value was determined as 4 and the “Pre-emergence herbicidal activity, damage score ZEAMX” value amounted to 2. For the same compound, in assay [2], the “Herbicidal damage score, ALOMY” value came out at 4 and the “Herbicidal damage score, ZEAMX” value is 2.

With `C/C=C/c1cc(N2C(=O)C(Cl)=C(C)C2O)nn1C` (stereo not shown) [Compound B21], in assay [1], the “Pre-emergence herbicidal activity, damage score ABUTH” value was determined as 2; the “Pre-emergence herbicidal activity, damage score ALOMY” value came to 3; the “Pre-emergence herbicidal activity, damage score AMARE” value is on record as 4; the “Pre-emergence herbicidal activity, damage score ECHCG” value stood at 4. Further, in assay [1], the “Pre-emergence herbicidal activity, damage score SETFA” value was found to be 3 and the “Pre-emergence herbicidal activity, damage score ZEAMX” value is 0. In addition, in assay [2], the “Herbicidal damage score, ABUTH” value amounted to 4; the “Herbicidal damage score, ALOMY” value is 2; the “Herbicidal damage score, AMARE” value was found to be 4; the “Herbicidal damage score, ECHCG” value is 4. Besides, in assay [2], the “Herbicidal damage score, SETFA” value is listed as 5 and the “Herbicidal damage score, ZEAMX” value worked out at 0.

In the case of `CC(C)=CCc1cc(N2C(=O)C(Cl)=C(C)C2O)nn1C` (stereo not shown) [Compound B22], in assay [1], the “Pre-emergence herbicidal activity, damage score ABUTH” value is listed as 0; the “Pre-emergence herbicidal activity, damage score ALOMY” value was found to be 0; the “Pre-emergence herbicidal activity, damage score ECHCG” value was 0; the “Pre-emergence herbicidal activity, damage score SETFA” value came out at 0. For the same compound, in assay [1], the “Pre-emergence herbicidal activity, damage score ZEAMX” value is 0. In addition, in assay [2], the “Herbicidal damage score, ABUTH” value was determined as 3; the “Herbicidal damage score, ALOMY” value is recorded as 0; the “Herbicidal damage score, AMARE” value turned out to be 0; the “Herbicidal damage score, ECHCG” value came out at 2. For the same compound, the “Herbicidal damage score, ZEAMX” value in assay [2] was determined as 2.
